The text below walks through data of paper PMC9402746, “A phase I dose escalation, dose expansion and pharmacokinetic trial of gemcitabine and alisertib in advanced solid tumors and pancreatic cancer” (Cancer Chemotherapy and Pharmacology, 2022).

Data set [1] can be described thus: Plasma pharmacokinetics of gemcitabine and dFdU without and with alisertib, non-compartmental analysis. In kind it is in vivo, human. The conditions noted are these: for Percentage extrapolated AUC0->inf, Mean / Cmax / AUC(0-inf) / AUC(0-t): plasma, gemcitabine 1000 mg/m^2 IV; for Cmax / AUC(0-inf) / AUC(0-t): human, iv; for AUC(0-inf): read-out: AUC0->inf, Mean (converted); for AUC(0-t): read-out: AUC0->last, Mean (converted); for Effect of co-administered alisertib on NCA PK parameters (day 1 vs day 8): paired t test, P > 0.05. The procedure:
(§1) Pharmacokinetic sampling was performed on the expanded cohort of subjects with pancreatic cancer treated at the RP2D. Alisertib was not administered on cycle 1, day 1 to enable gemcitabine pharmacokinetic sampling on day 1 and day 2 of cycle 1 in the absence of co-administered alisertib. This served as the reference baseline for comparison to gemcitabine pharmacokinetics when co-administered with alisertib on day 8 of cycle 1. On cycle 1 day 8, alisertib was administered within 10 min of the start of the gemcitabine infusion, and the second (evening) dose of alisertib was not administered to allow for gemcitabine measurement at the 24 h timepoint. Both the parent drug (gemcitabine, dFdC) and the metabolite (dFdU) were measured to evaluate changes in gemcitabine metabolism related to alisertib administration. Pharmacokinetic blood samples were collected with dipotassium ethylenediaminetetraacetic acid (K2EDTA) as the anticoagulant before treatment, immediately after gemcitabine infusion, and at additional pre-specified post-infusion timepoints. Actual timepoints were recorded for PK parameter evaluation. Measurement of plasma gemcitabine, dFdU, and alisertib concentrations are described in the Supplementary Methods.
(§2) Gemcitabine, dFdU and alisertib PK parameters were estimated using non-compartmental analysis (NCA) with Certara Phoenix WinNonlin 8.0 (Princeton, NJ), including mean peak concentration (Cmax) and exposure (Area Under the Curve, AUC). The AUC parameters were estimated using the linear-up-log-down trapezoidal rule. Tests of significance between day 1 and day 8 PK parameters were performed using paired t-tests with GraphPad Prism 6.07 (San Diego, CA).

Data set [2] can be described thus: Treatment exposures, delays and dose reductions. It counts as in vivo, human. An excerpt: To proceed to the next cycle, lab parameters included ANC ≥ 1500/mm^3 and platelet count ≥ 100,000/mm^3, and all other toxicity considered by the investigator to be related to therapy with alisertib or gemcitabine must have resolved to grade ≤ 1 or to the subject’s baseline values. […] Thereafter, the subject was re-evaluated to determine continuation eligibility. Dose modification (Table S1B, 1C) was required for cycle initiations delayed > 1 week due to incomplete recovery from treatment-related toxicity.
Median number of cycles per subject was 3 (range 1–13), and median duration of treatment was 2.84 months (range 0.36–13.22). Similar median duration of treatment and cycles delivered were observed between the dose levels (Table S2). Proportion of planned dose received, defined as total dose received divided by total planned dose according to the dose level for alisertib and 1000 mg/m^2 for gemcitabine, was calculated according to each subject (Table S3) and each cycle (Fig. 1).

The subject of the next data set is small cell lung cancer. Set-up: method as in PMID 31655296. The note with it: cited from earlier work.
In the next data set the test system is breast/ovarian cancer. Also on record: method as in PMID 30347019. The note with it: cited from earlier work.
The conditions of data set [3]: human, in vivo, 28 days. The procedure:
This was an open-label phase I clinical trial with two-phase design including a dose escalation and an expansion phase in pancreatic cancer. In the dose escalation phase, a standard 3 + 3 design was used to determine the maximum tolerated dose (MTD) of alisertib in combination with gemcitabine. Alisertib was administered orally twice daily (BID) on days 1–3, 8–10, and 15–17 of a 28-day treatment cycle. Gemcitabine was given concurrently at standard dosing of 1000 mg/m^2 intravenously on days 1, 8, 15. A starting dose of alisertib 20 mg BID was used in the dose escalation phase and was escalated in cohorts of at least three evaluable subjects at 30 mg BID, 40 mg BID, and 50 mg BID until MTD or the highest feasible dose level (Table S1). The dose of 50 mg BID was the highest dose allowable and was previously reported as the recommended phase II dose (RP2D) for alisertib monotherapy. In the expansion phase, subjects received the MTD or RP2D following the same cycle schedule. Dose adjustments were allowed for both drugs (Table S1B, 1C).
The MTD was defined as the highest dose tested in which fewer than 33% of subjects experienced DLT attributable to the study drugs, when at least six subjects were treated at that dose and evaluable for toxicity.
DLT was defined as any related (possibly, probably, or definitely) grade 3 non-hematologic toxicity or any attributable grade 4 toxicity. […]

Data set [4] can be described thus: Plasma pharmacokinetics of alisertib, non-compartmental analysis. In kind it is in vivo, human. The procedure: as §1, §2
The subject of data set [5] is Aurora Kinase A (AKA) compared to Aurora Kinase B. Set-up: method as in PMID 20382844, PMID 21556291. The note with it: cited from earlier work.
Another data set concerns selected CYPs. Set-up: method as in PMID 31911485. The conditions noted are these: in vitro; cited from earlier work.
Details of data set [6]: method as in PMID 22753585, PMID 24879333, PMID 25302940. The conditions noted are these: twice daily for 7 days in a 21-day cycle; cited from earlier work.
Data set [7] deals with multiple solid organ malignancies. Set-up: method as in PMID 25728526. The note with it: cited from earlier work.
On the set-up of data set [8]: method as in PMID 28852909. The conditions noted are these: published literature; cited from earlier work.
[9] abbreviates: 1000 mg/m2, Day 1 (without alisertib), N 5.
Setting [10] is: 1000 mg/m2, Day 8 (with alisertib), N 4.
Setting [11] is: monotherapy trial of solid tumors.

Entries after “also recorded” stand apart in the source; their conditions may differ. Read-outs that look alike come from different tables or passages of the source.

In general, Cmax refers to the highest concentration seen after dosing. Consider `O=c1ccn([C@@H]2O[C@H](CO)[C@@H](O)C2(F)F)c(=O)[nH]1` [dFdU, 2′, 2′-difluorodeoxyuridine], for which the “Percentage extrapolated AUC0->inf, Mean” value is recorded as 18.13% in data set [1] (Day 1 (without alisertib), N 5) and 15.73% in [1] (Day 8 (with alisertib), N 4). Moreover, the Cmax amounted to 67900 ng/mL in data set [1] (setting [9]) and 73800 ng/mL in [1] (setting [10]). In addition, the AUC(0-inf) in data set [1] (setting [9]) is 412000 ng·h/mL; in data set [1] (setting [10]), 363000 ng·h/mL. Also, the AUC(0-t) in data set [1] (setting [9]) was 363000 ng·h/mL; in data set [1] (setting [10]) it was 343000 ng·h/mL. Further, in data set [1], the “Effect of co-administered alisertib on NCA PK parameters (day 1 vs day 8)” value is given as “No significant changes; also recorded: not significantly affected”.

As to `Nc1ccn([C@@H]2O[C@H](CO)[C@@H](O)C2(F)F)c(=O)n1` [gemcitabine], the “Percentage extrapolated AUC0->inf, Mean” value in data set [1] (Day 1 (without alisertib), N 5) is 0.14%. Further, in data set [1] (Day 8 (with alisertib), N 4), the “Percentage extrapolated AUC0->inf, Mean” value is reported as 0.32%. In addition, in [1] (setting [9]), the Cmax was 7420 ng/mL, the AUC(0-inf) was 3600 ng·h/mL and the AUC(0-t) is 3600 ng·h/mL. In [1] (setting [10]), the maximum concentration (Cmax) was 6240 ng/mL, the AUC(0-inf) is 3240 ng·h/mL and the AUC(0-t) is 3230 ng·h/mL. In addition, in data set [1], the “Effect of co-administered alisertib on NCA PK parameters (day 1 vs day 8)” value is “No significant changes; also recorded: not significantly affected”. For the same compound, in data set [2] (of 26 subjects), the “Subjects who required dose delays” value worked out at 16 subjects, the “Subjects who required dose omission” value came out at 14 subjects and the “Subjects with dose reductions” value came out at 5 subjects. Also, in [2] (of 94 cycles delivered), the “Cycles given at a reduced dose” value amounted to 10 cycles, the “Cycles with delayed doses” value is 43 cycles and the “Cycles with dose omissions” value worked out at 17 cycles.

As to `CC(=O)O[C@H]1C(=O)[C@@]2(C)[C@H]([C@H](OC(=O)c3ccccc3)[C@]3(O)C[C@H](OC(=O)[C@H](O)[C@@H](NC(=O)c4ccccc4)c4ccccc4)C(C)=C1C3(C)C)[C@]1(OC(C)=O)CO[C@@H]1C[C@@H]2O` [paclitaxel], the results for the mPFS in the data set on small cell lung cancer (89 subjects in each arm) and in the data set on breast/ovarian cancer (breast/ovarian subjects) were 2.17 months and 4.7 months, respectively. Moreover, the Response rate in the data set on small cell lung cancer is 18%; in the data set on breast/ovarian cancer (breast/ovarian subjects, p = 0.38), 52%.

A word on the Tmax: it is the time from dosing to the highest level. `COc1cc(Nc2ncc3c(n2)-c2ccc(Cl)cc2C(c2c(F)cccc2OC)=NC3)ccc1C(=O)O` [alisertib]: the “Recommended phase 2 dose of alisertib combined with gemcitabine” value in [3] is 50 mg. The Cmax in data set [4] (Subject 22, day 8, unexpectedly high) is 1750 ng/mL; in data set [4] (human, plasma, oral, observed here with gemcitabine, similar to previously reported, read-out: Cmax) it was 700 to 900 ng/mL; in data set [4] (human, alisertib oral at RP2D with gemcitabine, cycle 1 day 8, plasma, N 5, read-out: Cmax, Mean), 973 ng/mL. Moreover, the “Percentage extrapolated AUC0->inf, Mean” value in [4] (alisertib oral at RP2D with gemcitabine, cycle 1 day 8, plasma, N 4) is 25.08%. Also, the Tmax in [4] (human, plasma, oral, Subject 24, day 8, unexpectedly long, read-out: Tmax) is 24 h; in data set [4] (human, plasma, oral, other subjects here, day 8, read-out: Tmax), 1.5 to 4.5 h; in data set [4] (human, plasma, po, alisertib oral at RP2D with gemcitabine, cycle 1 day 8, plasma, N 5, read-out: Tmax, Mean (converted)), 7.52 h; in [8], 3 to 4 h. Besides, the AUC(0-inf) in data set [4] (human, alisertib oral at RP2D with gemcitabine, cycle 1 day 8, plasma, N 4, read-out: AUC0->inf, Mean (converted)) was 16300 ng·h/mL. Besides, the AUC(0-t) in data set [4] (human, alisertib oral at RP2D with gemcitabine, cycle 1 day 8, plasma, N 5, read-out: AUC0->last, Mean (converted)) was 11800 ng·h/mL. In addition, the “Subjects who underwent dose delays/omissions” value in data set [2] (of 26 subjects) is on record as 18 subjects. In data set [2] (of 26 subjects), the “Subjects with dose reductions” value is reported as 9 subjects. Besides, the Cycles modified in [2] (of 94 cycles delivered) is reported as 27 cycles. Moreover, the “Selectivity for AKA compared to Aurora Kinase B” value in data set [5] is recorded as greater than 200 fold. For the same compound, the “Inhibition of selected CYPs” value with selected CYPs is “not shown appreciable inhibition”. For the same compound, the “RP2D of alisertib monotherapy” value in [6] is 50 mg. Moreover, the “Rate of SAEs” value in data set [7] (setting [11]) is 43%. In [7] (setting [11]), the “Treatment-related adverse events: anemia” value is on record as 10%. The “Treatment-related adverse events: leukopenia” value in data set [7] (setting [11]) is given as 21%. The “Treatment-related adverse events: neutropenia” value in [7] (setting [11]) was 43%. In addition, the Response rates in data set [7] (monotherapy, depending on the primary tumor subtype) was 5–20%. Also, the “RP2D of alisertib in combination with paclitaxel” value with breast/ovarian cancer (twice daily, schedule similar to the one reported here) is 40 mg.
